Test results as given in PMC9863562, “Design, Synthesis, and Biological Evaluation of 2-Mercaptobenzoxazole Derivatives as Potential Multi-Kinase Inhibitors” (Pharmaceuticals, 2023).

How the values were obtained:
Caspase-3 = assay: Apoptosis-related proteins in HepG2 cells (ELISA), Caspase-3; type: cell-based, human
Excerpt: (§1) Compound 6b was selected to investigate the apoptotic markers against the liver cancer cell line (HepG2). […] Typically, Bax, Bcl-2, and caspases contribute to the regulation of apoptotic signaling. Acting as an apoptotic activator (Bax) or inhibitor (Bcl-2), the Bcl-2 family of proteins plays a significant role in apoptosis. The caspase family comprises cysteine proteases that are classified as either executioner—caspase-3, or as initiators—caspase-9 and caspase-8 [40]. […] Nevertheless, considerable downregulation of the anti-apoptotic gene, Bcl-2 (0.26 folds), was described, leading to an increased expression ratio of Bax/Bcl-2 (1→20.53). The Bax/Bcl-2 gene expression ratio can serve as an early predictor for cancer in patients and is a sensitive monitor of cancer progression. […]
(§2) The HepG2 cells were incubated in 96-well plates in triplicates and left for 24 h. […] The treated cells, along with control cells, were then incubated for another 24 h; then, caspases-3 and 9, BAX, and Bcl-2 levels were determined using ELISA assay kits; KHO1091 (Invitrogen^TM, Grand Island, NY, USA), EIA-4860 (DRU International, Inc., Mountainside, NJ, USA), EIA-4487 (DRU International INC., Mountainside, NJ, USA) and 99–0042 (Invitrogen^TM, Grand Island, NY, USA), respectively, according to their manufacturers’ procedures.

[1] = tested on: HepG2, MCF-7, MDA-MB-231 and HeLa cell lines; assay: MTT cytotoxicity assay, panel of four cell lines; type: cell-based; conditions: Homo sapiens, range over HepG2, MCF-7, MDA-MB-231, HeLa, read-out: IC50 values, range over the tested cell lines
Excerpt: (§3) The in vitro cytotoxicity for the final target compounds, 4(a–d), 5(a–f), and 6(a–b), was preliminarily evaluated via the MTT colorimetric assay against a panel of four human cell lines, namely, the hepatocellular carcinoma (HepG2), mammary gland (MCF-7), breast cancer (MDA-MB-231) and epithelioid cervix carcinoma (HeLa).
(§4) The cytotoxicity of the target hybrids was examined by an MTT assay against HepG2, HeLa, MCF-7, and MDA-MB-231. At first, the RPMI-1640 medium with 10% fetal bovine serum was used to cultivate the cell lines. Then, antibiotics (penicillin (100 units/mL) and streptomycin (100 µg/mL)) were added in a 37 °C incubator in 5% CO2. The cell lines were seeded in a 96-well plate at a density of 1.0 × 10^4 cells/well at 37 °C under 5% CO2 for 48 h. After incubation, the cells were treated with various concentrations of the synthesized compounds and incubated for an additional 24 h. Following the drug treatment, 20 µL of 5 mg/mL MTT solution was added and incubated for 4 h. To dissolve the purple formazan that had formed, 100 µL dimethyl sulfoxide (DMSO) was added to each well. At a wavelength of 570 nm, the colorimetric assay was recorded and measured, using a plate reader BioTek EXL 800 (Agilent Technologies, Inc., Santa Clara, CA, USA). The percentage of relative cell viability was counted using the following formula (A570 of handled specimens/A570 of the unhandled specimen), multiplied by 100. The results of the cytotoxicity value were presented as the median growth inhibitory concentration (IC50) of the reagents compared to the control.

[2] = tested on: HepG2 cells (hepatocellular carcinoma); assay: MTT cytotoxicity assay, HepG2; type: cell-based; conditions: Homo sapiens, HepG2, 24 h, 24 h treatment, read-out: In Vitro Cytotoxicity IC50 HepG2
Excerpt: as §3, §4

[3] = tested on: MCF-7 cells (mammary gland cancer); assay: MTT cytotoxicity assay, MCF-7; type: cell-based; conditions: Homo sapiens, MCF7, 24 h treatment, read-out: In Vitro Cytotoxicity IC50 MCF-7
Method: After incubation, the cells were treated with various concentrations of the synthesized compounds and incubated for an additional 24 h. Following the drug treatment, 20 µL of 5 mg/mL MTT solution was added and incubated for 4 h. To dissolve the purple formazan that had formed, 100 µL dimethyl sulfoxide (DMSO) was added to each well. […] The percentage of relative cell viability was counted using the following formula (A570 of handled specimens/A570 of the unhandled specimen), multiplied by 100.

Bcl-2 = assay: Apoptosis-related proteins in HepG2 cells (ELISA), Bcl-2; type: cell-based, human
Excerpt: as §1, §2

HepG2 cells = assay: Annexin V-FITC/PI dual-staining apoptosis analysis; type: cell-based, human; conditions: HepG2, 6b at 6.83 μM, 24 h
Method: To identify the mode of cell death promoted by compound 6b within the liver cancer cells (HepG2), apoptosis rate analysis was performed, following 24 h of exposure. […] Moreover, the average proportion of Annexin-V-stained positive cells (total apoptotic cells) was elevated from 2.02% within the untreated cells to 16.84% within the treated ones. […] The provided findings are supported by the previous cell cycle analysis, confirming the potentiality of 6b as a promising anticancer agent (see Table 6 and Figure 6).
Apoptosis analysis was employed to evaluate the apoptotic effect of compound 6b. […] These stained cells were evaluated using flow cytometry equipment Epics XL-MCL™ (Beckman Coulter, Apeldoorn, Netherlands) with an excitation wavelength of 488 nm and an emission wavelength of 530 nm. The results were then analyzed with the Flowing software.

Human EGFR = biological target: T1, Human EGFR (Homo sapiens, UniProt P00533); assay: In vitro EGFR enzyme assay (ELISA kit); type: biochemical
T1 construct: purchased
Method: Human CDK2, EGFR, HER2, and VEGFR-2 ELISA kits (Enzyme-Linked-Immunosorbent Serologic Assay) were used during this evaluation. At first, specified antibody proteins were added separately to a 96-well plate, then 0.1 mL of the standard solution or the evaluated molecule was added; these were then incubated for 2.5 h at RT. After rinsing, 100 μL of the ready-made biotin antibody protein was added, then incubated for one extra hour at room temperature and, finally, washed. Next, 100 μL of streptavidin solution was added, incubated at room temperature for 45 min, and then washed. Next, 100 μL of the TMB substrate reagent was added and incubated for 0.5 h at RT, followed by adding 50 μL of the stop solution. The absorbance of the ELISA plate was promptly measured at 450 nm using the ELISA plate reader.

T1 sequence (P00533 25-1210): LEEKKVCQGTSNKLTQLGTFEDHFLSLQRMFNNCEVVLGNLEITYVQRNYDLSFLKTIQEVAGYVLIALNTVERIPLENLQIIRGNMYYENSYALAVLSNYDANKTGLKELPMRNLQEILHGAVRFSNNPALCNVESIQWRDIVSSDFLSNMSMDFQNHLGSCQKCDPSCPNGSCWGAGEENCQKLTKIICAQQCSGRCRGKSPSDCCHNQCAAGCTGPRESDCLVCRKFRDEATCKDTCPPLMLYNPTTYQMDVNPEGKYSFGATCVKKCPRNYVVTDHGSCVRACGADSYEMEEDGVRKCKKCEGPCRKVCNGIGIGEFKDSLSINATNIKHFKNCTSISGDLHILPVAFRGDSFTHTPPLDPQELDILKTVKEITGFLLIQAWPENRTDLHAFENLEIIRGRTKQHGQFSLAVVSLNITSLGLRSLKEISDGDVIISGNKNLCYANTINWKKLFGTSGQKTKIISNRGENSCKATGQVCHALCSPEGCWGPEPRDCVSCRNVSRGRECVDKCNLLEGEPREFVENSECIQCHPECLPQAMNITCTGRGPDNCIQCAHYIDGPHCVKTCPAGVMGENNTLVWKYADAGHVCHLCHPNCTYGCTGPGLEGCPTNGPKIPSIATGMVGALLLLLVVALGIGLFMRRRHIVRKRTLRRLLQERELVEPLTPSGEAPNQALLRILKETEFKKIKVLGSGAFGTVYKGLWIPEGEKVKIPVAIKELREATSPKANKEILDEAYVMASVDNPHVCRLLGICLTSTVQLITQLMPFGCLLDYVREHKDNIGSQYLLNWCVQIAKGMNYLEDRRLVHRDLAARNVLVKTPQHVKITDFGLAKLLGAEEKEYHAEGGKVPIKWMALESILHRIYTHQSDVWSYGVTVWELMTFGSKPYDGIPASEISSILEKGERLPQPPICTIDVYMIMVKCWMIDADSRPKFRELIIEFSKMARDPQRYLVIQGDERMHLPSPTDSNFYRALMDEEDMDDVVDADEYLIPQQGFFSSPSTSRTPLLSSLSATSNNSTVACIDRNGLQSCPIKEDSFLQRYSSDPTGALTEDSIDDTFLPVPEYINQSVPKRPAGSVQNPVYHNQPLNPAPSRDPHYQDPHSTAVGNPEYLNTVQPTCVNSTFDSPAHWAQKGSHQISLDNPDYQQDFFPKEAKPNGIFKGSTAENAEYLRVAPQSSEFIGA

In the case of `O=C(CSc1nc2ccccc2o1)NN=Cc1ccc[nH]1` (mixture of isomers) [Compound 6b, (E/Z)-N′-((1H-pyrrol-2-yl)methylene)-2-(benzo[d]oxazol-2-ylthio)acetohydrazide], the “Caspase-3 Expression” value (Caspase-3; 24 h treatment, ELISA) is reported as 467.6 ± 24 pg/mL, the “Caspase-3 Fold” value (Caspase-3; versus control HepG2 = 1) is reported as 5.02 fold and the IC50 [1] is reported as 2.14 to 19.3 µM. For the same compound, the IC50 [2] was about 6.83 µM, the IC50 [3] was 3.64 ± 0.2 µM and the “Bcl-2 Expression” value (Bcl-2; 24 h treatment, ELISA) was 2.822 ± 0.21 pg/mL. The “Bcl-2 Fold” value (Bcl-2; versus control HepG2 = 1) was 0.26 fold, the “Early Apoptosis (Lower Right %)” value (HepG2 cells) was 1.64% and the “Late Apoptosis (Upper Right %)” value (HepG2 cells) was 10.91%. The “Total (%) apoptotic cells” value (HepG2 cells) was 16.84% and the IC50 (Human EGFR) was 0.279 ± 0.017 µM.
